Literature values, collected in patent US7592371B2, “External preparation” (Medrx Co., Ltd., priority 2004, dated 2009).

Settings: oral administration

For `COc1ccc(C=CC(=O)Nc2ccccc2C(=O)O)cc1OC` [tranilast, N-(3,4-Dimethoxycinnamoyl) anthranilic acid], the side effects is given as “serious side effects such as hepatic dysfunction and renal dysfunction”.
